Consider two compounds from PMC6805867, “Amphiphilic Triazine Polymer Derivatives as Antibacterial And Anti-atopic Agents in Mice Model” (Scientific Reports, 2019).

The test system of series [1] is Multidrug-resistant Pseudomonas aeruginosa (MDRPA) (CCARM 2095). Kind of series: Chequerboard assay (synergy with clinically used antibiotics). The format is cell-based. As to conditions: for FICB: [B]/MICB; for FICI (fractional inhibitory concentration index): MDRPA CCARM 2095; for [B] (MIC of triazine polymer in combination): unit not given. The method, then: Briefly, 2-fold serial dilutions of each antibiotic and each polymer were prepared and added in a 1:1 volume ratio to the wells of a 96-well plate. An equal volume of bacterial solution (100 μL) at ∼10^6 CFU/mL was then seeded into each well. The plates were incubated in a shaking incubator at 37 °C and 200 rpm and read after 22 h. Bacterial growth was assessed visually or spectrophotometrically via OD600 readings taken by a microplate ELISA reader (Molecular Devices, Sunnyvale, CA, USA). The fractional inhibitory concentration index (FICI) for each drug combination was calculated using the following equation: FICI = FICA + FICB = [A]/MICA + [B]/MICB, where MICA and MICB are the MIC of antibiotic and triazine based monomer (TZP3 or TZP5), respectively, while [A] and [B] are the MIC of antibiotic and triazine based monomer (TZP3 or TZP5) in combination, respectively. FICI of ≤ 0.5 was interpreted as synergy, 0.5 < FICI ≤ 1.0 as additive, 1.0 < FICI ≤ 4.0 as indifferent, and a FICI > 4.0 as antagonism.

The next series deals with trypsin. Kind of series: Protease stability, radial diffusion assay after tryptic digestion. The format is in vitro ADME. As to conditions: trypsin 0.2 μg/mL in PBS, 37 °C (24 h, 4 h elsewhere in the source), clearance zones against E.coli and S.aureus. The method, then: The protease stability of triazine based polymers (TZP3 and TZP5) was performed by the radial diffusion assay as described previously. Briefly, a bacteria suspension (2×10^6 CFU/mL in LB) was mixed with 0.7% agarose. This mixture was poured into a 10-cm petri dish, and it dispersed rapidly. […] The reaction was stopped by freezing with liquid nitrogen, after which 10 μL aliquots were placed in each circle paper, put on the agarose plates, and then incubated at 37 °C overnight. The diameters of the bacterial clearance zones surrounding the circle paper were measured for the quantitation of inhibitory activities.

The test system of series [2] is Escherichia coli (KCTC 1682). Kind of series: Antimicrobial activity, broth microdilution MIC. The format is cell-based. Particulars: 2 × 10^6 CFU/mL in 1% peptone, 37 °C, 18–22 h, 100% inhibition of growth, performed three times. The protocol: (§1) The bacterial strains employed in the experiment were Escherichia coli (KCTC 1682), Pseudomonas aeruginosa (KCTC 1637), Bacillus subtilis (KCTC 3068), Staphylococcus aureus (KCTC 1621), three methicillin-resistant Staphylococcus aureus (CCARM 3089, 3090 and 3095), two multidrug-resistant Pseudomonas aeruginosa (CCARM 2095 and 2109) and vancomycin-resistant Enterococcus faecium (ATCC 51559). The antimicrobial activities of polymers were determined by the broth microdilution method, and the procedures were used as previously reported. Briefly, bacteria grown to mid-logarithmic phase in LB broth were diluted to 2 × 10^6 CFU/mL in 1% peptone and added to serial two-fold dilutions of different polymers ranging from 1 to 64 μg/mL. The plates were incubated in a shaking incubator at 37 °C for 18–22 h. The minimum inhibitory concentration (MIC) was determined by confirming the absence of bacterial growth both visually and spectrophotometrically by OD600 readings taken by a microplate ELISA reader (Molecular Devices, Sunnyvale, CA, USA). All measurements were performed three times.

For series [3], the system named is Staphylococcus aureus (KCTC 1621). Kind of series: Antimicrobial activity, broth microdilution MIC. As to conditions: 2 × 10^6 CFU/mL in 1% peptone, 37 °C, 18–22 h, 100% inhibition of growth, performed three times. It counts as cell-based. The method, then:
as §1
In general terms: In broth dilution the organism is exposed to a series of concentrations in liquid medium.

The subject of series [4] is Pseudomonas aeruginosa (KCTC 1637). Kind of series: Antimicrobial activity, broth microdilution MIC. It counts as cell-based. Particulars: 2 × 10^6 CFU/mL in 1% peptone, 37 °C, 18–22 h, 100% inhibition of growth, performed three times. The protocol:
as §1

Series [5] deals with Bacillus subtilis (KCTC 3068). Kind of series: Antimicrobial activity, broth microdilution MIC. The format is cell-based. As to conditions: 2 × 10^6 CFU/mL in 1% peptone, 37 °C, 18–22 h, 100% inhibition of growth, performed three times. The method, then:
as §1

The test system of series [6] is β-hexosaminidase release from RBL-2H3 cells. Kind of series: β-hexosaminidase release assay. It counts as cell-based, rat. As to conditions: 500 μg/mL, 12 h treatment, A23187 1 μM 30 min, dose-dependent. The protocol: The β-hexosaminidase assay was performed as described previously with some modifications. Cells were treated with different concentrations of samples for 12 h. The treated cells were washed two times with PBS and stimulated with calcium ionophore A23187 (1 μM, final concentration) at 37 °C for 30 min. Aliquots (50 μL) of the supernatants were incubated with 50 μL of 1 mM 4-nitrophenyl-N-acetyl-β-D-glucosaminide in 0.1 M sodium citrate (pH 4.5) at 37 °C for 1 h. At the end of incubation, 250 μL of carbonate buffer containing 0.1 M Na2CO3 and 0.1 M NaHCO3 (pH 10) was added, and then the absorbance due to the formation of p-nitrophenol was measured at 410 nm. The supernatant from the non-stimulated cells was used as a blank while the supernatant from the stimulated cells with calcium ionophore A23187 alone was used as a control. The β-hexosaminidase release levels were calculated as a percentage compared to that of control: β-hexosaminidase release (%) = (absorbance of tested sample− absorbance of blank)/(absorbance of control-absorbance of blank) × 100.
Effect of TZP3 and TZP5 on TNF-α suppression
Therefore, the dimer TZP3 and trimer TZP5 were probed for their potential for inhibiting the TNF-α induced from RBL-2H3 cells in in vitro method.
Calcium ionophore A23187 and PMA induced the TNF-α secretion in RBL-2H3 cells, on the contrary, treatment of which with TZP3 and TZP5
Figure S1. […]

[7] abbreviates: in combination with chloramphenicol.
Setting [8] is: in combination with ciprofloxacin.
[9] abbreviates: combination with chloramphenicol.

For the compound `NCCCN(CCCN)c1nc(Cl)nc(NCCNc2nc(NCCNc3nc(N)nc(NCCC(c4ccccc4)c4ccccc4)n3)nc(N(CCCN)CCCN)n2)n1` [TZP5], the FICB in series [1] (setting [7]) was 0.25; in series [1] (setting [8]), 0.25; in series [1] (in combination with oxacillin), 1.0. Besides, the Interaction result is reported as “synergy (FICI of ≤ 0.5 was interpreted as synergy)” in series [1] (setting [9]), “synergy (FICI of ≤ 0.5 was interpreted as synergy)” in series [1] (combination with ciprofloxacin) and “indifferent (1.0 < FICI ≤ 4.0 as indifferent)” in series [1] (combination with oxacillin). The “FICI (fractional inhibitory concentration index)” value came to 0.281 in series [1] (setting [9]), 0.5 in series [1] (combination with ciprofloxacin) and 2.0 in series [1] (combination with oxacillin). In addition, the “[B] (MIC of triazine polymer in combination)” value in series [1] (setting [7]) came to 4; in series [1] (setting [8]), 4; in series [1] (in combination with oxacillin), 16. Moreover, the “antibacterial activity after incubation with trypsin” value in the series with trypsin is given as “did not lose any of their antibacterial effects”. The “MIC Escherichia coli (KCTC 1682)” value in series [2] is 4 [3] μg/mL. Moreover, in series [3], the “MIC Staphylococcus aureus (KCTC 1621)” value was 4 [3] μg/mL. For the same compound, in series [4], the “MIC Pseudomonas aeruginosa (KCTC 1637)” value is 4 [3] μg/mL. For the same compound, the “MIC Bacillus subtilis (KCTC 3068)” value in series [5] is 2 [1.5] μg/mL. In addition, the “inhibition of β-hexosaminidase release” value in series [6] is “maximum inhibitory effects”.
In the case of `NCCCN(CCCN)c1nc(N)nc(NCCNc2nc(Cl)nc(N(Cc3ccccc3)Cc3ccccc3)n2)n1` [TZP3], the FICB in series [1] (setting [7]) stood at 0.25; in series [1] (setting [8]), 0.5; in series [1] (in combination with oxacillin), 1.0. The Interaction result in series [1] (setting [9]) is “synergy (FICI of ≤ 0.5 was interpreted as synergy)”; in series [1] (combination with ciprofloxacin), “additive (0.5 < FICI ≤ 1.0 as additive)”; in series [1] (combination with oxacillin), “indifferent (1.0 < FICI ≤ 4.0 as indifferent)”. In addition, the “FICI (fractional inhibitory concentration index)” value in series [1] (setting [9]) amounted to 0.281; in series [1] (combination with ciprofloxacin), 0.75; in series [1] (combination with oxacillin), 2.0. For the same compound, the “[B] (MIC of triazine polymer in combination)” value is given as 4 in series [1] (setting [7]), 8 in series [1] (setting [8]) and 16 in series [1] (in combination with oxacillin). Further, the “antibacterial activity after incubation with trypsin” value in the series on trypsin is listed as “did not lose any of their antibacterial effects”. Besides, the “MIC Escherichia coli (KCTC 1682)” value in series [2] was 4 [6.8] μg/mL. Besides, the “MIC Staphylococcus aureus (KCTC 1621)” value in series [3] was 4 [6.8] μg/mL. Moreover, the “MIC Pseudomonas aeruginosa (KCTC 1637)” value in series [4] was 8 [13.5] μg/mL. In series [5], the “MIC Bacillus subtilis (KCTC 3068)” value was 2 [3.4] μg/mL. Also, the “inhibition of β-hexosaminidase release” value in series [6] was “maximum inhibitory effects”.
